# Results published in patent US20250163076A1, “SYNTHESIS OF BRUTON'S TYROSINE KINASE INHIBITORS” (JANSSEN PHARMACEUTICA NV, priority 2022, published 2025).
# Read-outs that look alike come from different tables or passages of the source. Marks after values point to notes of the source that are not given here.
# Columns and labels:
# [1] = Aqueous solubility at pH 2 and pH 7; type: physicochemical
# [2] = Human liver microsomes T1/2; type: in vitro ADME; conditions: for half-life: human, liver microsomes
# BTK = BTK (Homo sapiens, UniProt Q06187); experiment: BTK covalent inhibition kinetics (KI, kinact, kinact/KI); type: biochemical; conditions: for Ki / kinact: average of 2 independent determinations (± SD)
# Experimental: The development of the structure-activity relationship was conducted by characterizing the non-covalent affinity of each inhibitor for BTK (KI) and the first order rate constant for irreversible covalent bond formation (kinact). The second order rate constant kinact/KI ratio is used to assess the covalent inhibitor potency because it is independent of incubation time and substrate concentrations (Copeland, R. A. Evaluation of Enzyme Inhibitors in Drug Discovery: a Guide for Medicinal Chemists and Pharmacologists; 2nd ed.; Wiley: Hoboken, N.J., 2013).
# [3] = Solubility of P and M forms in solvent systems and their water mixtures; type: physicochemical
# Description: Moreover, this solubility difference can be tuned by changing the ratio between 1-propanol/water. Therefore, M form can be efficiently converted even starting from a 1:1 d.r. mixture.
# [4] = aqueous medium, aqueous buffer, Table 4, pH 7, read-out: Solubility pH 7
# [5] = aqueous medium, simulated gastric fluid, Table 4, pH 2, read-out: Solubility pH 2
# [6] = aqueous medium, simulated gastric fluid, Table 5, pH 2, read-out: Solubility pH 2
# BTK, sequence (Q06187 whole entry): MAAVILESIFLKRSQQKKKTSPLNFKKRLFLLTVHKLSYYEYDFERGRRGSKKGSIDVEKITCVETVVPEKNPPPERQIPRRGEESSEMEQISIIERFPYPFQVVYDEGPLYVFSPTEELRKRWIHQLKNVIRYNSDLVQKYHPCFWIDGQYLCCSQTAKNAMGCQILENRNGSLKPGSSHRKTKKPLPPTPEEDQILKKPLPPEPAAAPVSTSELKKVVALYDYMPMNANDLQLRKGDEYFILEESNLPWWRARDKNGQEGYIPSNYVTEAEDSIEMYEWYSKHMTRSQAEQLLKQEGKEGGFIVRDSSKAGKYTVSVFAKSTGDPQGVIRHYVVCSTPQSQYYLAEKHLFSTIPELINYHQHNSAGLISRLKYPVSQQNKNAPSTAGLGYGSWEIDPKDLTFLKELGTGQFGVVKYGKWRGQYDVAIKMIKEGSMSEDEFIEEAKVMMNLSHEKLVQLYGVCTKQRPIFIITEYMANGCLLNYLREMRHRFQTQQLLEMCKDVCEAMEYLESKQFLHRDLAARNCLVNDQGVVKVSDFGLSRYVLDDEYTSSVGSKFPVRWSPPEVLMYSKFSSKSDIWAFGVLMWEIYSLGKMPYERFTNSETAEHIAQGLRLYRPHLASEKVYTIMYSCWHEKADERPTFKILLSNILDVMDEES
smiles,measurement,setting,value
C=CC(=O)N1CCCC(NC(=O)c2sc3nccc4c3c2NC(=O)N4c2cnc(Oc3ccccc3)cc2C)C1 (centres unmarked) [Compound F],Solubility,[1]; [4],7 µM
same,Solubility,[1]; [5],15 µM
same,half-life,[2]; Table 4,5 min
same,Ki,BTK; Table 4,27.6 nM
same,kinact,BTK; Table 4,0.000352 s⁻¹
same,kinact/KI,"BTK; Table 4, read-out: kinact/KI",13000 ± 1700 M⁻¹ s⁻¹
C=CC(=O)N1CCCC(NC(=O)c2sc3nccc4c3c2NC(=O)N4c2cnc(CC(C)C)cc2C)C1 (centres unmarked) [J],Solubility,"[1]; aqueous medium at pH 2, simulated gastric fluid, Table 4, pH 2, read-out: Solubility pH 2",350 µM
same,Solubility,"[1]; aqueous medium at pH 7, aqueous buffer, Table 4, pH 7, read-out: Solubility pH 7",23 µM
same,half-life,[2]; Table 4,6 min
same,Ki,BTK; Table 4,145 ± 20 nM
same,kinact,BTK; Table 4,0.000319 s⁻¹
same,kinact/KI,"BTK; Table 4, read-out: kinact/KI",2220 ± 272 M⁻¹ s⁻¹
C=CC(=O)N1CCC(NC(=O)c2sc3nccc4c3c2NC(=O)N4c2cnc(CC(C)C)cc2C)C1 (centres unmarked) [K],Solubility,"[1]; aqueous medium, aqueous buffer, Table 5, pH 7, read-out: Solubility pH 7",172 µM
same,Solubility,[1]; [6],> 400 µM
same,half-life,[2]; Table 5,53 min
same,Ki,BTK; Table 5,2550 nM
same,kinact,BTK; Table 5,0.000255 s⁻¹
same,kinact/KI,"BTK; Table 5, read-out: kinact/KI",98.5 ± 12 M⁻¹ s⁻¹
C=CC(=O)N1CCCC(NC(=O)c2sc3nccc4c3c2NC(=O)N4c2cnc(OC(C)C)cc2C)C1 (centres unmarked) [Compound I],Solubility,[1]; [4],68 µM
same,Solubility,[1]; [5],119 µM
same,half-life,[2]; Table 4,19 min
same,kinact/KI,BTK; Table 4,1660 ± 62 M⁻¹ s⁻¹
same,Ki,BTK; Table 4,208 ± 15 nM
same,kinact,BTK; Table 4,0.000345 s⁻¹
same,kinact/KI,"BTK; Table 4, read-out: kinact/KI",1660 M⁻¹ s⁻¹
C=CC(=O)N1CCCC(NC(=O)c2sc3nccc4c3c2NC(=O)N4c2ccc(Oc3ccccc3)cn2)C1 (centres unmarked) [C],Solubility,[1]; [4],9 µM
same,Solubility,[1]; [5],10 µM
same,half-life,[2]; Table 4,< 4 min
same,Ki,BTK; Table 4,456 ± 7 nM
same,kinact,BTK; Table 4,0.000303 s⁻¹
same,kinact/KI,"BTK; Table 4, read-out: kinact/KI",664 ± 44 M⁻¹ s⁻¹
C=CC(=O)N1CCCC(NC(=O)c2sc3nccc4c3c2NC(=O)N4c2cnc(OC3CCC3)cc2C)C1 (centres unmarked) [H],Solubility,[1]; [4],4 µM
same,Solubility,[1]; [5],10 µM
same,half-life,[2]; Table 4,< 4 min
same,Ki,BTK; Table 4,64 ± 14 nM
same,kinact,BTK; Table 4,0.000316 s⁻¹
same,kinact/KI,"BTK; Table 4, read-out: kinact/KI",5000 ± 560 M⁻¹ s⁻¹
C=CC(=O)N1CCCC(NC(=O)c2sc3nccc4c3c2NC(=O)N4c2ccc(Oc3ccccc3)cc2)C1 (centres unmarked) [Compound B],Solubility,[1]; [4],< 4 µM
same,Solubility,[1]; [5],< 4 µM
same,half-life,[2]; Table 4,< 4 min
same,Ki,BTK; Table 4,32 ± 20 nM
same,kinact,BTK; Table 4,0.00039 ± 0.00011 s⁻¹
same,kinact/KI,"BTK; Table 4, read-out: kinact/KI",13800 ± 5200 M⁻¹ s⁻¹
same,kinact/KI,BTK; text b354,13800 M⁻¹ s⁻¹
C=CC(=O)N1CCCC(NC(=O)c2sc3nccc4c3c2NC(=O)N4c2cnc(OC3CCCC3)cc2C)C1 (centres unmarked) [Compound G],Solubility,[1]; [4],< 4 µM
same,Solubility,[1]; [5],15 µM
same,half-life,[2]; Table 4,< 4 min
same,Ki,BTK; Table 4,22.2 ± 3.3 nM
same,kinact,BTK; Table 4,0.000307 s⁻¹
same,kinact/KI,"BTK; Table 4, read-out: kinact/KI",13800 ± 430 M⁻¹ s⁻¹
C=CC(=O)NCCNC(=O)c1sc2nccc3c2c1NC(=O)N3c1cnc(CC(C)C)cc1C [L],Solubility,"[1]; Table 5, pH 7, read-out: Solubility pH 7",220 µM
same,Solubility,[1]; [6],> 400 µM
same,Human liver microsomes T1/2,[2]; Table 5,27 min
same,Ki,BTK; Table 5,2430 nM
same,kinact,BTK; Table 5,0.000317 s⁻¹
same,kinact/KI,"BTK; Table 5, read-out: kinact/KI",131 ± 2 M⁻¹ s⁻¹
"C=CC(=O)N[C@H]1CCC[C@H]1NC(=O)c1sc2nccc3c2c1NC(=O)N3c1cnc(CC(C)C)cc1C (single isomer, unassigned) [M form]",Solubility,"[3]; 1-Butanol/water (~6/94 w/w %), 10° C.",0.2 mg/mL
same,Solubility,"[3]; 1-Butanol/water (~6/94 w/w %), 25° C.",0.3 mg/mL
same,Solubility,"[3]; 1-Butanol/water (~6/94 w/w %), 50° C.",immiscible
same,Solubility,"[3]; 1-Butanol/water (~80/20 w/w %), 10° C.",346.6 mg/mL
same,Solubility,"[3]; 1-Butanol/water (~80/20 w/w %), 25° C.",334.0 mg/mL
same,Solubility,"[3]; 1-Butanol/water (~80/20 w/w %), 50° C.",immiscible
same,Solubility,"[3]; 1-Butanol, 10° C.",397.5* mg/mL
same,Solubility,"[3]; 1-Butanol, 25° C.",266.2 mg/mL
same,Solubility,"[3]; 1-Butanol, 50° C.",444.7 mg/mL
same,Solubility,"[3]; 1-Propanol/water (20/80 w/w %), 10° C.",4.2 mg/mL
same,Solubility,"[3]; 1-Propanol/water (20/80 w/w %), 25° C.",3.7 mg/mL
same,Solubility,"[3]; 1-Propanol/water (20/80 w/w %), 50° C.",4.9 mg/mL
same,Solubility,"[3]; 1-Propanol/water (33/67 w/w %), 25° C.",39.9 mg/mL
same,Solubility,"[3]; 1-Propanol/water (33/67 w/w %), 50° C.",285.9 mg/mL
same,Solubility,"[3]; 1-Propanol/water (50/50 w/w %), 25° C.",187.5 mg/mL
same,Solubility,"[3]; 1-Propanol/water (50/50 w/w %), 50° C.",276.3 mg/mL
same,Solubility,"[3]; 1-Propanol/water (67/33 w/w %), 10° C.",341.7 mg/mL
same,Solubility,"[3]; 1-Propanol/water (67/33 w/w %), 25° C.",336.5 mg/mL
same,Solubility,"[3]; 1-Propanol/water (67/33 w/w %), 50° C.",363.3 mg/mL
same,Solubility,"[3]; 1-Propanol/water (80/20 w/w %), 10° C.",394.0 mg/mL
same,Solubility,"[3]; 1-Propanol/water (80/20 w/w %), 25° C.",386.8 mg/mL
same,Solubility,"[3]; 1-Propanol/water (80/20 w/w %), 50° C.",394.5 mg/mL
same,Solubility,"[3]; 1-Propanol, 10° C.",500.4 mg/mL
same,Solubility,"[3]; 1-Propanol, 25° C.",265.4 mg/mL
same,Solubility,"[3]; 2-butanol/water (~17/83 w/w %), 10° C.",2.5 mg/mL
same,Solubility,"[3]; 2-butanol/water (~17/83 w/w %), 25° C.",1.7 mg/mL
same,Solubility,"[3]; 2-butanol/water (~17/83 w/w %), 50° C.",0.2 mg/mL
same,Solubility,"[3]; Isobutanol/water (~8/92 w/w %), 10° C.",0.2 mg/mL
same,Solubility,"[3]; Isobutanol/water (~8/92 w/w %), 25° C.",0.2 mg/mL
same,Solubility,"[3]; Isobutanol/water (~8/92 w/w %), 50° C.",0.1 mg/mL
same,Solubility,"[3]; Isobutanol, 10° C.",272.5* mg/mL
same,Solubility,"[3]; Isobutanol, 25° C.",238.0 mg/mL
same,Solubility,"[3]; Isobutanol, 50° C.",389.4 mg/mL
same,Solubility,"[3]; Isopropanol/water (~16/84 w/w %), 10° C.",0.6 mg/mL
same,Solubility,"[3]; Isopropanol/water (~16/84 w/w %), 25° C.",0.6 mg/mL
same,Solubility,"[3]; Isopropanol/water (~16/84 w/w %), 50° C.",4.0 mg/mL
same,Solubility,"[3]; Isopropanol/water (~28/72 w/w %), 10° C.",3.0 mg/mL
same,Solubility,"[3]; Isopropanol/water (~28/72 w/w %), 25° C.",4.6 mg/mL
same,Solubility,"[3]; Isopropanol/water (~28/72 w/w %), 50° C.",10.0 mg/mL
same,Solubility,"[3]; Isopropanol/water (~44/56 w/w %), 10° C.",31.0 mg/mL
same,Solubility,"[3]; Isopropanol/water (~44/56 w/w %), 25° C.",31.0 mg/mL
same,Solubility,"[3]; Isopropanol/water (~44/56 w/w %), 50° C.",>200 mg/mL
same,Solubility,"[3]; Isopropanol/water (~61/39 w/w %), 10° C.",126.0 mg/mL
same,Solubility,"[3]; Isopropanol/water (~61/39 w/w %), 25° C.",109.0 mg/mL
same,Solubility,"[3]; Isopropanol/water (~61/39 w/w %), 50° C.",>200 mg/mL
same,Solubility,"[3]; Propylene carbonate/water (93/7 w/w %), 10° C.",129.8 mg/mL
same,Solubility,"[3]; Propylene carbonate/water (93/7 w/w %), 25° C.",123.9 mg/mL
same,Solubility,"[3]; Propylene carbonate/water (93/7 w/w %), 50° C.",106.5 mg/mL
same,Solubility,"[3]; Propylene carbonate, 10° C.",163.1 mg/mL
same,Solubility,"[3]; Propylene carbonate, 25° C.",73.7 mg/mL
same,Solubility,"[3]; Propylene carbonate, 50° C.",107.0* mg/mL
C=CC(=O)N1CCCC(NC(=O)c2sc3nccc4c3c2NC(=O)N4c2ccc(Oc3ccccc3)nc2)C1 (centres unmarked) [D],Solubility,[1]; [4],4 µM
same,Solubility,[1]; [5],18 µM
same,half-life,[2]; Table 4,6 min
same,Ki,BTK; Table 4,354 ± 29 nM
same,kinact,BTK; Table 4,0.000278 s⁻¹
same,kinact/KI,"BTK; Table 4, read-out: kinact/KI",786 ± 63 M⁻¹ s⁻¹
C=CC(=O)N1CCCC(NC(=O)c2sc3nccc4c3c2NC(=O)N4c2ncc(Oc3ccccc3)cc2C)C1 (centres unmarked) [E],Solubility,[1]; [4],9 µM
same,Solubility,[1]; [5],16 µM
same,half-life,[2]; Table 4,4 min
same,Ki,BTK; Table 4,69.9 ± 0.2 nM
same,kinact,BTK; Table 4,0.000333 s⁻¹
same,kinact/KI,"BTK; Table 4, read-out: kinact/KI",4770 ± 7450 M⁻¹ s⁻¹
